# Experimental data: ChEMBL document CHEMBL1151840, “Synthetic oligoribonucleotides containing arabinonucleotides act as agonists of TLR7 and 8” (Bioorg Med Chem Lett, 2009)
# Activity calls are given as the source filed them. The calls are words filed in the database; no cut-off is given here.
# Key:
# PBMC [1] = test: Stimulation of immune response in human PBMC assessed as induction of IL10 production at 150 ug/ml after 24 hrs; type: functional, cell-based
# Homo sapiens [2] = organism: Homo sapiens; test: Stimulation of immune response in human pDC assessed as induction of IL12 production at 150 ug/ml after 24 hrs; type: functional
# [3] = molecular target: T1, Toll-like receptor 7 (Homo sapiens) (UniProt Q9NYK1); test: Agonist activity at human TLR7 expressed in HEK293XL cells assessed as NF-kappaB activation at 300 ug/ml after 18 hrs; type: functional, cell-based
# T1 sequence (whole entry): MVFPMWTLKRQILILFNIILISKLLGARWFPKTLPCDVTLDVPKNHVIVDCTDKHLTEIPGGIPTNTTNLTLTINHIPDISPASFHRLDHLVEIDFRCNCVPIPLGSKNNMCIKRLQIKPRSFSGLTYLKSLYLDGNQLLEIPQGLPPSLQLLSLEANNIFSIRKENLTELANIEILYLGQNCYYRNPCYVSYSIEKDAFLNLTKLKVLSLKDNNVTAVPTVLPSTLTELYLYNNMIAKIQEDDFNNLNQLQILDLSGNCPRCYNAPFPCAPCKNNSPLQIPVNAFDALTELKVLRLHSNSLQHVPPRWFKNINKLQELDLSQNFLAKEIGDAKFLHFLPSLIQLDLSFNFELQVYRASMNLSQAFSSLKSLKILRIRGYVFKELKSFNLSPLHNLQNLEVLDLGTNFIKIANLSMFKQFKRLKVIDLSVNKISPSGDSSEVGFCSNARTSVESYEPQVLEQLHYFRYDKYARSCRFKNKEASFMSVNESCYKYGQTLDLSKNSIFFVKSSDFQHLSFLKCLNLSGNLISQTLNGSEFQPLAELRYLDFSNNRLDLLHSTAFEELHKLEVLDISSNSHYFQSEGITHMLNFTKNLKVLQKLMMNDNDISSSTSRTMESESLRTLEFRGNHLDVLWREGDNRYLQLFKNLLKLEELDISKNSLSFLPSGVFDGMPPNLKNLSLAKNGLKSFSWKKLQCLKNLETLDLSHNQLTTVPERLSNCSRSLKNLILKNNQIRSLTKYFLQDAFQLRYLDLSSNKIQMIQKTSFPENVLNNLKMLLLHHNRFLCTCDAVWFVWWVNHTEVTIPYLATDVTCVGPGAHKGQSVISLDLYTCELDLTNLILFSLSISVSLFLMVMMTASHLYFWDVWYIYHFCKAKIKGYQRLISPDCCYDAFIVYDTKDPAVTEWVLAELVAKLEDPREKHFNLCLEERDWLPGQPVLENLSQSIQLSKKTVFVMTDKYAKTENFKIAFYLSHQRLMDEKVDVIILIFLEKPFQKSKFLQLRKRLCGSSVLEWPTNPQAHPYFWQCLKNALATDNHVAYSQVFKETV
# PBMC [4] = test: Stimulation of immune response in human PBMC assessed as induction of MIP1beta production at 150 ug/ml after 24 hrs; type: functional, cell-based
# PBMC [5] = test: Stimulation of immune response in human PBMC assessed as induction of IL2R level at 150 ug/ml after 24 hrs; type: functional, cell-based
# Mus musculus = test: Stimulation of immune response in C57BL/6 mouse assessed as induction of serum IL12 production at 50 mg/kg, sc after 2 hrs by luminex multiplex assay; type: functional, organism-based; parameters: dose 50 mg/kg
# PBMC [6] = test: Stimulation of immune response in human PBMC assessed as induction of IL1-beta production at 150 ug/ml after 24 hrs; type: functional, cell-based
# PBMC [7] = test: Stimulation of immune response in human PBMC assessed as induction of MIP1alpha production at 150 ug/ml after 24 hrs; type: functional, cell-based
# PBMC [8] = test: Stimulation of immune response in human PBMC assessed as induction of IL12 production at 150 ug/ml after 24 hrs; type: functional, cell-based
# Homo sapiens [9] = organism: Homo sapiens; test: Stimulation of immune response in human pDC assessed as induction of IFNalpha production at 150 ug/ml after 24 hrs; type: functional
# [10] = molecular target: T2, Toll-like receptor 8 (Homo sapiens) (UniProt Q9NR97); test: Agonist activity at human TLR8 expressed in HEK293XL cells assessed as NF-kappaB activation after 18 hrs; type: functional, cell-based
# T2 sequence (whole entry): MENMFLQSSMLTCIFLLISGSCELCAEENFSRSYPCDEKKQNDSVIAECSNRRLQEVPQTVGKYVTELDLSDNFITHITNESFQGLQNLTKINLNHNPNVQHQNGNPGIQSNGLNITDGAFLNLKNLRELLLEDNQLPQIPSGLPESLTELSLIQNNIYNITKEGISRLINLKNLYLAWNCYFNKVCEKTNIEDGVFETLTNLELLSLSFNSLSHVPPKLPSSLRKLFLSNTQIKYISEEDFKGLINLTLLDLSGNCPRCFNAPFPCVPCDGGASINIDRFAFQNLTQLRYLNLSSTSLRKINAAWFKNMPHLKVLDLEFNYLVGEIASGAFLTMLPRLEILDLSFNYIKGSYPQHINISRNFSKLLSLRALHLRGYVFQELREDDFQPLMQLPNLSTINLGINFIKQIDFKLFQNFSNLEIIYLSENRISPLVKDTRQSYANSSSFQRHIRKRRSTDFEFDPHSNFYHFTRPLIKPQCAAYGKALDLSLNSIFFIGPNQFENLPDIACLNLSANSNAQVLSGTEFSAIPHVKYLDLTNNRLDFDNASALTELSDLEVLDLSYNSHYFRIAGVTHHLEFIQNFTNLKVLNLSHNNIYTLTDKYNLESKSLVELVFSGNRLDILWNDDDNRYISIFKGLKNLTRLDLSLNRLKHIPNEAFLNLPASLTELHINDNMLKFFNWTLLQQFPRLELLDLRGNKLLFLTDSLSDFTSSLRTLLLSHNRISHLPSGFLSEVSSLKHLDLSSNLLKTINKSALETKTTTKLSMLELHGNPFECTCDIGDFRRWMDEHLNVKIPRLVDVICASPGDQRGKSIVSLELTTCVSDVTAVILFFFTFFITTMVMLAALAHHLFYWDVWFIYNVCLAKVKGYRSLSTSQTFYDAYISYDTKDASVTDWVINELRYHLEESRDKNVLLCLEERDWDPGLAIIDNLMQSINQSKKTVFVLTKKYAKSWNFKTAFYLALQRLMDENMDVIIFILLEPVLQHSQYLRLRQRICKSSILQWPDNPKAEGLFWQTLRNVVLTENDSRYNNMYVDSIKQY
# Homo sapiens [11] = organism: Homo sapiens; test: Stimulation of immune response in human pDC assessed as induction of MIP1beta production at 150 ug/ml after 24 hrs; type: functional
# PBMC [12] = test: Stimulation of immune response in human PBMC assessed as induction of IL8 production at 150 ug/ml after 24 hrs; type: functional, cell-based
# PBMC [13] = test: Stimulation of immune response in human PBMC assessed as induction of RANTES production at 150 ug/ml after 24 hrs; type: functional, cell-based
# PBMC [14] = test: Stimulation of immune response in human PBMC assessed as induction of IFNalpha production at 150 ug/ml after 24 hrs; type: functional, cell-based
# PBMC [15] = test: Stimulation of immune response in human PBMC assessed as induction of IFN-gamma production at 150 ug/ml after 24 hrs; type: functional, cell-based
# Homo sapiens [16] = organism: Homo sapiens; test: Stimulation of immune response in human pDC assessed as induction of MIP1alpha production at 150 ug/ml after 24 hrs; type: functional
# PBMC [17] = test: Stimulation of immune response in human PBMC assessed as induction of TNFalpha production at 150 ug/ml after 24 hrs; type: functional, cell-based
# Homo sapiens [18] = organism: Homo sapiens; test: Stimulation of immune response in human pDC assessed as induction of TNFalpha production at 150 ug/ml after 24 hrs; type: functional
# PBMC [19] = test: Stimulation of immune response in human PBMC assessed as induction of MCP1 production at 150 ug/ml after 24 hrs; type: functional, cell-based
# Homo sapiens [20] = organism: Homo sapiens; test: Stimulation of immune response in human pDC assessed as induction of IFN-gamma production at 150 ug/ml after 24 hrs; type: functional
smiles,measurement,setting,value
Nc1ccn([C@@H]2O[C@H](COP(=O)(S)O[C@H]3[C@@H](O)[C@H](n4cnc5c(N)ncnc54)O[C@@H]3COP(=O)(S)O[C@H]3[C@@H](O)[C@H](n4cnc5c(=O)[nH]c(N)nc54)O[C@@H]3COP(=O)(S)O[C@H]3[C@@H](O)[C@H](n4ccc(=O)[nH]c4=O)O[C@@H]3COP(=O)(S)O[C@H]3[C@@H](O)[C@H](n4cnc5c(=O)[nH]c(N)nc54)O[C@@H]3COP(=O)(S)O[C@H]3[C@@H](O)[C@H](n4ccc(=O)[nH]c4=O)O[C@@H]3COP(=O)(S)O[C@H]3[C@@H](O)[C@H](n4cnc5c(=O)[nH]c(N)nc54)O[C@@H]3COP(=O)(S)O[C@H]3[C@@H](O)[C@H](n4ccc(=O)[nH]c4=O)O[C@@H]3COP(=O)(S)O[C@H]3[C@@H](O)[C@H](n4ccc(=O)[nH]c4=O)O[C@@H]3COP(=O)(S)O[C@H]3[C@@H](O)[C@H](n4cnc5c(=O)[nH]c(N)nc54)O[C@@H]3COP(=O)(S)O[C@H]3[C@@H](O)[C@H](n4ccc(=O)[nH]c4=O)O[C@H]3CO)[C@@H](OP(=O)(S)OCC(O)COP(=O)(S)O[C@H]3[C@@H](O)[C@H](n4ccc(N)nc4=O)O[C@@H]3COP(=O)(S)O[C@H]3[C@@H](O)[C@H](n4cnc5c(N)ncnc54)O[C@@H]3COP(=O)(S)O[C@H]3[C@@H](O)[C@H](n4cnc5c(=O)[nH]c(N)nc54)O[C@@H]3COP(=O)(S)O[C@H]3[C@@H](O)[C@H](n4ccc(=O)[nH]c4=O)O[C@@H]3COP(=O)(S)O[C@H]3[C@@H](O)[C@H](n4cnc5c(=O)[nH]c(N)nc54)O[C@@H]3COP(=O)(S)O[C@H]3[C@@H](O)[C@H](n4ccc(=O)[nH]c4=O)O[C@@H]3COP(=O)(S)O[C@H]3[C@@H](O)[C@H](n4cnc5c(=O)[nH]c(N)nc54)O[C@@H]3COP(=O)(S)O[C@H]3[C@@H](O)[C@H](n4ccc(=O)[nH]c4=O)O[C@@H]3COP(=O)(S)O[C@H]3[C@@H](O)[C@H](n4ccc(=O)[nH]c4=O)O[C@@H]3COP(=O)(S)O[C@H]3[C@@H](O)[C@H](n4cnc5c(=O)[nH]c(N)nc54)O[C@@H]3COP(=O)(S)O[C@H]3[C@@H](O)[C@H](n4ccc(=O)[nH]c4=O)O[C@@H]3CO)[C@H]2O)c(=O)n1 (stereo in doubt; 6),Activity,PBMC [1],Active
same,Activity,Homo sapiens [2],Active
same,Activity,[3],inactive
same,Activity,PBMC [4],Active
same,Activity,PBMC [5],Active
same,Activity,Mus musculus,inactive
same,Activity,PBMC [6],Active
same,Activity,PBMC [7],Active
same,Activity,PBMC [8],Active
same,Activity,Homo sapiens [9],inactive
same,Activity,[10],Dose-dependent effect
same,Activity,Homo sapiens [11],Active
same,Activity,PBMC [12],Active
same,Activity,PBMC [13],Active
same,Activity,PBMC [14],Active
same,Activity,PBMC [15],Active
same,Activity,Homo sapiens [16],Active
same,Activity,PBMC [17],Active
same,Activity,Homo sapiens [18],Active
same,Activity,PBMC [19],Active
same,Activity,Homo sapiens [20],Active
